Experimental findings from patent US11866394B2, “Prodrugs of hydroxamate-based GCPII inhibitors” (The Johns Hopkins University, priority 2016, dated 2024) are described below.

The structures appear in SMILES notation.

The test system of data set [1] is rat chronic constriction injury (CCI) model of neuropathic pain. The experiment in a line: Chronic constrictive injury (CCI) model of neuropathic pain, thermal hyperalgesia. The conditions noted are these: oral daily, 3 mg/kg dose equivalent of 1 (50), 4.6 mg/kg/day for 12. It counts as in vivo. From the text: All experimental protocols were approved by the Institutional Animal Care and Use Committee at Johns Hopkins University (Baltimore, MD) and adhered to all of the applicable institutional and governmental guidelines for the humane treatment of laboratory animals. Male Sprague-Dawley rats (200-250 g; n=10-15 per group) were subjected to peripheral neuropathy injury by constriction of the sciatic nerve performed according to methods described previously. (Novakova, et al., 2016; Bennett, et al., 1988; Attal, et al., 1990) In brief, the common sciatic nerve was exposed and 4 ligatures (4.0 chromic gut) tied loosely around it with 1 mm spacing. Wound clips were used to close wounds and animals were returned to home cages for recovery. Hyperalgesia testing was initiated 10 days post-surgery. Pain sensitivity was assessed by determining withdrawal latencies in response to a constant thermal stimulus directed to the plantar surface of the hind paw using a Basile Plantar apparatus (Ugo Basile, Vaarese, Italy) according to the method described by Hargreaves et al. (Hargreaves, et al., 1988) Apparatus was calibrated so that normal rats respond to the stimulus within 15 sec of application. Withdrawal latency (i.e., the time taken for the rat to withdraw its paw from the heat source) was measured to the nearest 0.1 sec. The “difference in score” was calculated by subtracting the average latency of the paw on the non-ligated versus ligated side. Each animal was tested during two experimental sessions per week, with three days allowed to elapse between test sessions. Test agents, prodrug 12 (3 mg/kg equivalent of 1), or gabapentin (50 mg/kg and 100 mg/kg po) as a positive control were dosed daily throughout the study via oral gavage and one hour before testing on experimental days. Statistical analysis with students t-test was used to determine differences between control and treatment group.

A short description of data set [2]: In vitro metabolic stability in human plasma. It counts as in vitro ADME. The following applies: 37° C. How it is done: (§1) For metabolic stability, plasma (mouse, and human) and liver microsomes (mouse and human) were used. For stability, prodrugs (10 μM) were spiked in each matrix and incubated in an orbital shaker at 37° C. At predetermined times (0, 30 and 60 min), 100 μL aliquots of the mixture in triplicate were removed and the reaction quenched by addition of three times the volume of ice cold acetonitrile spiked with the internal standard (losartan 5 μM). The samples were vortexed for 30 s and centrifuged 12000 g for 10 min. 50 μL supernatant diluted with 50 μL water was transferred to a 250 μL polypropylene vial sealed with a Teflon cap. Prodrug disappearance was monitored over time using a liquid chromatography and tandem mass spectrometry (LC/MS/MS) method as described below.
(§2) For LC/MS/MS, prodrugs were separated with Thermo Scientific Accela UPLC system coupled to Accela open autosampler on an Agilent C18 (100×2.1 mm id) UPLC column. The autosampler was temperature controlled and operating at 10° C. […] The column effluent was monitored using TSQ Vantage triple-quadrupole mass spectrometric detector, equipped with an electrospray probe set in the positive ionization mode. […]
(§3) For quantification of compound remaining, disappearance of prodrugs was measured from ratio of peak areas of analyte to IS. Percentage remaining was calculated in the following manner: […]

The test system of data set [3] is rat chronic constriction injury (CCI) model of neuropathic pain. The experiment in a line: Chronic constrictive injury (CCI) model of neuropathic pain, thermal hyperalgesia. Type of data set: in vivo. The following applies: 1 mg/kg subcutaneous dose (dose equivalent of 50).
Data set [4] can be described thus: Subcutaneous plasma and sciatic nerve pharmacokinetic studies in mice. It counts as in vivo. The conditions noted are these: 10 mg/kg equivalent s.q., 10-120 min post dose. The procedure:
Bioanalysis of parent and intact prodrug in plasma and tissues: Prior to extraction, frozen samples were thawed on ice. For plasma, 50 μL of the sample was transferred into siliconized microcentrifuge tubes. For sciatic nerves, the samples were weighed in a 1.7 mL tubes and homogenized in 5× the volume of methanol. The calibration curves were prepared using naïve plasma and sciatic nerves in a concentration range of 50-10000 pmol/g or pmol/mL. Sample preparation involved a single liquid extraction by addition of 300 μL of methanol with internal standard (losartan 200 nM in methanol), followed by vortexing for 30 s and then centrifugation at 10,000×g for 10 min. Supernatant (about 250 μL) was transferred and evaporated to dryness at 40° C. under a gentle stream of nitrogen. The residue was reconstituted with 50 μL of 30% acetonitrile and analysed by LC/MS/MS.
Chromatographic analysis was performed using an Accela™ ultra high-performance system consisting of an analytical pump, and an autosampler coupled with TSQ Vantage mass spectrometer (Thermo Fisher Scientific Inc., Waltham, MA). […] The mobile phase used was composed of 0.1% formic acid in acetonitrile and 0.1% formic acid in H2O with gradient elution, starting with 10% (organic) linearly increasing to 99% up to 2.5 min, maintaining at 99% (2.5-3.5 min) and reequlibrating to 10% by 4.5 min. The total run time for each analyte was 4.5 min. The mass transitions (M−H)− used for Compound 50 were 280.077>175.168, 203.156; and for losartan were 420.895>127.040, 179.108.

Data set [5] in a line: In vitro metabolic stability in mouse plasma. It counts as in vitro ADME. The following applies: 37° C. The procedure: as §1, §2, §3
A short description of data set [6]: Oral plasma pharmacokinetic studies in mice. It counts as in vivo. The conditions noted are these: mice (n=3), 10 mg/kg equivalent dose, plasma 30 min post dose. The procedure:
All pharmacokinetic studies in mice were conducted according to protocols approved by the Animal Care and Use Committee at Johns Hopkins University (Baltimore, MD). Briefly, male CD 1 mice between 25 g and 30 g were obtained from Harlan Laboratories (Indianapolis, Indiana), and maintained on a 12-hour light-dark cycle with ad libitum access to food and water.
Compound 1 and its prodrugs were administered to male mice as a single (p.o.) dose of 10 mg/kg equivalent. Dosing solutions were prepared on the day of the experiment in 50 mM HEPES buffered saline and pH adjusted to 7.4. The mice were sacrificed by pentobarbital injection at 30 minutes post drug administration, and blood collected via cardiac puncture was placed into iced heparin-coated BD microtainers. Blood samples were spun at 2,000 g for 15 minutes, plasma was removed and stored at −80° C. until LC-MS analysis as previously described. (Novakova, et al., 2016) Briefly, chromatographic analysis was performed using an Accela™ ultra high-performance system consisting of an analytical pump, and an autosampler coupled with TSQ Vantage mass spectrometer (Thermo Fisher Scientific Inc., Waltham, MA). […]
Bioanalysis of parent and intact prodrug in plasma and tissues: Prior to extraction, frozen samples were thawed on ice. […] The residue was reconstituted with 50 μL of 30% acetonitrile and analysed by LC/MS/MS. […]

Regarding `CC(=O)ONC(=O)CCC(Cc1ccc(C(=O)O)cc1)C(=O)O` (stereo not shown) [Compound 7, 4-(5-(Acetoxyamino)-2-carboxy-5-oxopentyl)benzoic acid], in data set [1], the “antinociceptive effect on thermal hyperalgesia, ligated side” value was “efficacious”. Moreover, the “metabolic stability in human plasma” value in data set [2] is “moderately stable”. In addition, in data set [3], the “reversal of thermal hyperalgesia” value is given as “efficacious”. The “plasma (systemic) levels of active compound 50 after subcutaneous dosing” value in data set [4] (plasma) is recorded as “high systemic levels”. For the same compound, the “sciatic nerve exposure of active compound 50 after subcutaneous dosing” value in data set [4] (sciatic nerve) is “excellent nerve exposure”. In data set [5], the “metabolic stability in mouse plasma” value is “moderately stable”.
Regarding `CC(=O)ONC(=O)CCC(Cc1cccc(C(=O)O)c1)C(=O)O` (stereo not shown) [Compound 34, 3-(5-(Acetoxyamino)-2-carboxy-5-oxopentyl)benzoic acid], in data set [6], the “release / plasma exposure of active compound 50 after oral dosing” value is “best release”.
